# Calls of active or inactive are those of the source. The calls are words filed in the database; no cut-off is given here.
# Assays:
# [1] = tested on: 4T1; assay: Antitumor activity against mouse 4T1 cells implanted in BALB/C mouse assessed as upregulation of IFNalpha gene expression at 25 mg/kg,ip administrated daily for 14 days by RT-qPCR analysis; assay type: functional, organism-based; settings: time 14.0 day
# [2] = tested on: MCF7; assay: Synergistic antiproliferative activity against human MCF7 cells assessed as downregulation of C-Myc gene expression at 2.5 uM incubated for 6 hrs in presence of tamoxifen by RT-qPCR analysis; assay type: functional, cell-based
# [3] = tested on: 4T1; assay: Antitumor activity against mouse 4T1 cells implanted in BALB/C mouse assessed as upregulation of CD8A expression at 25 mg/kg,ip administrated daily for 14 days by immunohistochemical staining based analysis; assay type: functional, organism-based; settings: time 14.0 day
# [4] = tested on: MCF7; assay: Synergistic antitumor activity against human MCF7 cells xenografted in BALB/C mouse assessed as downregulation of TFF1 gene expression at 25 mg/kg,ip administrated every other day for 15 days in presence of 5 mg/kg tamoxifen oral administration by RT-qPCR analysis; assay type: functional, organism-based; settings: time 15.0 day
# [5] = Toxicity in BALB/C mouse implanted with mouse 4T1 cells assessed as change in kidney morphology at 50 mg/kg,ip administrated daily for 14 days; assay type: organism-based; settings: in vivo, 336 h, time 14 day
# [6] = Toxicity in BALB/C mouse xenografted with human MDA-MB-231 cells assessed as change in liver morphology at 50 mg/kg,ip administrated daily for 11 days; assay type: organism-based; settings: in vivo, 264 h, time 11 day
# [7] = Toxicity in BALB/C mouse xenografted with human MDA-MB-231 cells assessed as change in lung morphology at 50 mg/kg,ip administrated daily for 11 days; assay type: organism-based; settings: in vivo, 264 h, time 11 day
# [8] = tested on: MCF7; assay: Antitumor activity against human MCF7 cells xenografted in BALB/C mouse assessed as reduction of tumor weight at 25 mg/kg,ip administrated every other day for 29 days; assay type: functional, organism-based; settings: time 29.0 day
# [9] = tested on: 4T1; assay: Antitumor activity against mouse 4T1 cells implanted in BALB/C mouse assessed as downregulation of TFF1 gene expression at 50 mg/kg,ip administrated daily for 14 days by RT-qPCR analysis; assay type: functional, organism-based; settings: time 14.0 day
# [10] = tested on: MCF7; assay: Synergistic antitumor activity against human MCF7 cells xenografted in BALB/C mouse assessed as reduction in tumor weight at 25 mg/kg,ip administrated every other day for 15 days in presence of 5 mg/kg tamoxifen oral administration; assay type: functional, organism-based; settings: time 15.0 day
# [11] = tested on: 4T1; assay: Antitumor activity against mouse 4T1 cells implanted in BALB/C mouse assessed as upregulation of IFIT1 gene expression at 50 mg/kg,ip administrated daily for 14 days by RT-qPCR analysis; assay type: functional, organism-based; settings: time 14.0 day
# [12] = Toxicity in BALB/C mouse implanted with mouse 4T1 cells assessed as change in spleen morphology at 50 mg/kg,ip administrated daily for 14 days; assay type: organism-based; settings: in vivo, 336 h, time 14 day
# [13] = tested on: MCF7; assay: Antitumor activity against human MCF7 cells xenografted in BALB/C mouse assessed as inhibition of tumor growth at 25 mg/kg,ip administrated every other day for 29 days; assay type: functional, organism-based; settings: time 29.0 day
# [14] = Toxicity in BALB/C mouse xenografted with human MDA-MB-231 cells assessed as change in liver morphology at 25 mg/kg,ip administrated daily for 11 days; assay type: organism-based; settings: in vivo, 264 h, time 11 day
# [15] = tested on: HCC1806; assay: Antiproliferative activity against human HCC1806 cells assessed as reduction in cell growth incubated for 7 days by celltiter 96 aqueous one solution cell proliferation assay; settings: HCC1806, 168 h
# [16] = tested on: MCF7; assay: Antitumor activity against human MCF7 cells xenografted in BALB/C mouse assessed as downregulation of PGR gene expression at 50 mg/kg,ip administrated every other day for 29 days by RT-qPCR analysis; assay type: functional, organism-based; settings: time 29.0 day
# [17] = tested on: MDA-MB-231; assay: Antitumor activity against human MDA-MB-231 cells xenografted in BALB/C mouse assessed as reduction of tumor weight at 25 mg/kg,ip administrated daily for 11 days; assay type: functional, organism-based; settings: time 11.0 day
# [18] = tested on: 4T1; assay: Potentiation of etoposide induced antitumor activity against mouse 4T1 cells implanted in BALB/C mouse assessed as upregulation of DDX58 gene expression at 25 mg/kg,ip administrated daily for 12 days in presence of 8 mg/kg etoposide administration by RT-qPCR analysis; assay type: functional, organism-based; settings: time 12.0 day
# [19] = tested on: MCF7; assay: Antitumor activity against human MCF7 cells xenografted in BALB/C mouse assessed as downregulation of CCND1 gene expression at 50 mg/kg,ip administrated every other day for 29 days by RT-qPCR analysis; assay type: functional, organism-based; settings: time 29.0 day
# [20] = tested on: 4T1; assay: Antitumor activity against mouse 4T1 cells implanted in BALB/C mouse assessed as downregulation of PGR gene expression at 50 mg/kg,ip administrated daily for 14 days by RT-qPCR analysis; assay type: functional, organism-based; settings: time 14.0 day
# [21] = Toxicity in BALB/C mouse xenografted with human MDA-MB-231 cells assessed as change in heart morphology at 25 mg/kg,ip administrated daily for 11 days; assay type: organism-based; settings: in vivo, 264 h, time 11 day
# [22] = Toxicity in BALB/C mouse xenografted with human MCF7 cells assessed as change in kidney morphology at 50 mg/kg,ip administrated every other day for 29 days; assay type: organism-based; settings: in vivo, 696 h, time 29 day
# [23] = tested on: MDA-MB-231; assay: Antitumor activity against human MDA-MB-231 cells xenografted in BALB/C mouse assessed as inhibition of tumor growth at 50 mg/kg,ip administrated daily for 11 days; assay type: functional, organism-based; settings: time 11.0 day
# [24] = tested on: 4T1; assay: Antitumor activity against mouse 4T1 cells implanted in BALB/C mouse assessed as downregulation of CCND1 gene expression at 50 mg/kg,ip administrated daily for 14 days by RT-qPCR analysis; assay type: functional, organism-based; settings: time 14.0 day
# [25] = Toxicity in BALB/C mouse implanted with mouse 4T1 cells assessed as change in liver morphology at 50 mg/kg,ip administrated daily for 14 days; assay type: organism-based; settings: in vivo, 336 h, time 14 day
# [26] = tested on: 4T1; assay: Antitumor activity against mouse 4T1 cells implanted in BALB/C mouse assessed as downregulation of N-Myc gene expression at 25 mg/kg,ip administrated daily for 14 days by RT-qPCR analysis; assay type: functional, organism-based; settings: time 14.0 day
# [27] = tested on: MCF7; assay: Antitumor activity against human MCF7 cells xenografted in BALB/C mouse assessed as downregulation of TFF1 gene expression at 50 mg/kg,ip administrated every other day for 29 days by RT-qPCR analysis; assay type: functional, organism-based; settings: time 29.0 day
# [28] = tested on: MCF7; assay: Antitumor activity against human MCF7 cells xenografted in BALB/C mouse assessed as upregulation of IFNalpha gene expression at 25 mg/kg,ip administrated every other day for 29 days by RT-qPCR analysis; assay type: functional, organism-based; settings: time 29.0 day
# [29] = tested on: 4T1; assay: Antitumor activity against mouse 4T1 cells implanted in BALB/C mouse assessed as downregulation of GREB1 gene expression at 25 mg/kg,ip administrated daily for 14 days by RT-qPCR analysis; assay type: functional, organism-based; settings: time 14.0 day
# [30] = tested on: MCF7; assay: Antitumor activity against human MCF7 cells xenografted in BALB/C mouse assessed as upregulation of DDX58 gene expression at 50 mg/kg,ip administrated every other day for 29 days by RT-qPCR analysis; assay type: functional, organism-based; settings: time 29.0 day
# [31] = tested on: MCF7; assay: Antitumor activity against human MCF7 cells xenografted in BALB/C mouse assessed as upregulation of DDX58 gene expression at 25 mg/kg,ip administrated every other day for 29 days by RT-qPCR analysis; assay type: functional, organism-based; settings: time 29.0 day
# [32] = tested on: 4T1; assay: Antitumor activity against mouse 4T1 cells implanted in BALB/C mouse assessed as upregulation of CD8A expression at 50 mg/kg,ip administrated daily for 14 days by immunohistochemical staining based analysis; assay type: functional, organism-based; settings: time 14.0 day
smiles,measurement,setting,value
Cc1ccc(-c2nc(N3CCN(CCN(C)C)CC3)ncc2-c2ccoc2)cc1.Cl.Cl,Activity,[1],Active
same,Activity,[2],Active
same,Activity,[3],Active
same,Activity,[4],Active
same,Activity,[5],Non-Toxic
same,Activity,[6],Non-Toxic
same,Activity,[7],Non-Toxic
same,Activity,[8],Active
same,Activity,[9],Active
same,Activity,[10],Active
same,Activity,[11],Active
same,Activity,[12],Non-Toxic
same,Activity,[13],Active
same,Activity,[14],Non-Toxic
same,EC50,[15],2.83 µM
same,Activity,[16],Active
same,Activity,[17],Active
same,Activity,[18],Active
same,Activity,[19],Active
same,Activity,[20],Active
same,Activity,[21],Non-Toxic
same,Activity,[22],Non-Toxic
same,Activity,[23],Active
same,Activity,[24],Active
same,Activity,[25],Non-Toxic
same,Activity,[26],Active
same,Activity,[27],Active
same,Activity,[28],Active
same,Activity,[29],Active
same,Activity,[30],Active
same,Activity,[31],Active
same,Activity,[32],Active
